Series [1] is described as follows: Determination of metabolic stability with human liver microsomes. In kind it is in vitro ADME. The following applies: pooled human liver microsomes, 1 mg/ml protein, 1 μM test compound, 37° C.; for half-life at 1 μM: pH 7.6, read-out: In vitro stability in human liver microsome incubations t½. An excerpt:
Determination of Metabolic Stability with Human Liver Microsomes
A general note: Liver microsomes are vesicles of endoplasmic reticulum, rich in cytochrome P450 enzymes.

Series [2] concerns the target recombinant human DPPI (Cathepsin C) (Homo sapiens (Human), UniProt P53634). In words: Inhibition of human DPPI (Cathepsin C). It is filed as biochemical. The following applies: substrate Gly-Arg-AMC. The protocol:
Inhibition of Human DPPI (Cathepsin C)
Bovine serum albumin (BSA; Prod. No. A3059) and Dithiothreitol (DTT; Prod. No D0632) were from Sigma. […] The DPP1 inhibitor Gly-Phe-DMK was purchased from MP Biomedicals (Prod.-No. 03DK00625). The recombinant human DPPI was purchased from Prozymex. All other materials were of highest grade commercially available.
The following buffers were used: MES buffer: 25 mM MES, 50 mM NaCl, 5 mM DTT, adjusted to pH 6.0, containing 0.1% BSA; TAGZyme Buffer: 20 mM NaH2PO4, 150 mM NaCl adjusted to pH 6.0 with HCl
Then, 5 μL of substrate in MES buffer (final concentration 50 μM) were added. The microtiter plates were then incubated at room temperature for […] Then, the reaction was stopped by adding 10 μL of Gly-Phe-DMK in MES-buffer (final concentration 1 μM).
The analysis of the data was performed by calculating the percentage of fluorescence in the presence of test compound in comparison to the fluorescence of the vehicle control after subtracting the background fluorescence using the following formula: (RFU(sample)−RFU(background))*100/(RFU(control)−RFU(background))
Data from these calculations were used to generate IC50 values for inhibition of DPPI, respectively.

The target in series [3] is recombinant human Cathepsin K (Homo sapiens (Human), UniProt P43235). In words: Inhibition of human Cathepsin K. The following applies: substrate Z-Gly-Pro-Arg-AMC. In kind it is biochemical. An excerpt:
Inhibition of Human Cathepsin K
Materials: Microtiterplates (Optiplate-384 F were purchased from PerkinElmer (Prod. No. 6007270). The substrate Z-Gly-Pro-Arg-AMC was from Biomol (Prod.-No. P-142). L-Cysteine (Prod. No. 168149) was from Sigma. Sodium acetate was from Merck (Prod.-No. 6268.0250), EDTA was from Fluka (Prod.-No. 03680). The inhibitor E-64 was purchased from Sigma (Prod.-No. E3132). The recombinant human Cathepsin K proenzyme was purchased from Biomol (Prod. No. SE-367). All other materials were of highest grade commercially available. […]
5 μL test compound (final concentration 0.1 nM to 100 μM) in aqua bidest (containing 4% DMSO, final DMSO concentration 1%) were mixed with 10 uL of Cathepsin K in assay buffer (final concentration 2 ng/μL) and incubated for 10 min. […] The fluorescence in the wells was determined using a Molecular Devices SpectraMax M5 Fluorescence Reader (Ex 360 nm, Em 460 nm).
Each assay microtiter plate contains wells with vehicle controls (1% DMSO in bidest) as reference for non-inhibited enzyme activity (100% Ctl; high values) and wells with inhibitor (E64 in bidest+1% DMSO, final concentration 1 μM) as controls for background fluorescence (0% Ctl; low values). […]

Series [4] concerns neutrophil elastase activity in U937 cells. In words: Determination of neutrophil elastase activity in U937 cytosolic lysate preparation after incubation with test compound. In kind it is cell-based, human. On the procedure:
Determination of Neutrophil Elastase Activity in U937 Cytosolic Lysate Preparation after Incubation with Test Compound Materials:
Optiplate 384F were purchased from PerkinElmer (Prod. No. #6007270). 24 well Nunclon cell culture plates (No. 142475) and 96 well plates (No. 267245) were from Nunc. Dimethylsulfoxid (DMSO) was from Sigma (Prod. No. D8418). Nonidet-P40 (NP40) was from USBiological (Prod. No. N3500)
Substrate, specific for Neutrophil elastase, was from Bachem (MeOSuc-Ala-Ala-Pro-Val-AMC; Prod. No. I-1270).
Human neutrophil elastase was from Calbiochem (Prod. No. 324681)
Tris-buffer (100 mM Tris; 1M NaCL; pH 7.5)
Tris-buffer+HSA 0.1%; Human Serum Albumin from Calbiochem (Cat#. 126658)
Serine-protease buffer (20 mM Tris; 100 mM NaCL; pH 7.5)+0.1% HSA
Serine protease lysis buffer: 20 mM Tris-HCL; 100 mM NaCl pH 7.5; +0.2% Nonidet-P40;
PBS: phosphate buffered saline, without Ca and Mg, from Gibco
U937 from ECACC (Cat. No. 85011440) cultured in suspension at 37° C. and 5% CO2.
Cell density: 0.2-1 Mio. Cells/ml.
Medium: RPMI1640 GlutaMAX (No. 61870) with 10% FCS from Gibco
Cell Seeding and Treatment:
Compounds in 100% DMSO were diluted in Medium (-FCS) with 10% DMSO and further diluted according to the experiment planned.
20 μl of the compound solution was transferred in the respective wells of the 24 well plate and diluted with 2 ml cell suspension/well containing 1'10^5 cells/ml (final concentration of DMSO=0.1%). Compound dilution factor=100 […]
Frozen lysates were thawn at 37° C. for 10 minutes and stored on ice. Protein content was determined with Bradford protein assay. […]
The increase in fluorescence (Ex360 nm/Em 460 nm) is determined over 30 minutes with a Molecular Device Spectramax M5 Fluorescence Reader. […] The amount of neutrophil elastase (ng/ml) is calculated using the standard curve and the Spectramax software. […] Percent inhibition in the compound-treated lysate samples is calculated relative to the DMSO-treated control-sample (100−(compound-sample*100)/control-sample)
[…] is calculated using Graphpad Prism; nonlinear fitting (log(inhibitor) vs. response—Variable slope).

Setting [5] is: Homo sapiens, U-937, read-out: Reduction of NE-activity in U937 cells IC50.

pIC50: −log10 of the molar value. Read-outs that look alike come from different tables or passages of the source. Bounds are passed on as bounds.

Consider twelve compounds from patent publication US9713606B2, “Methods for treating pulmonary emphysema using substituted 2-Aza-bicyclo[2.2.1]heptane-3-carboxylic acid (benzyl-cyano-methyl)-amides inhibitors of cathepsin C” (Boehringer Ingelheim International GmbH, priority 2013, dated 2017).

A word on the pIC50: it is the IC50 on a negative log10 scale, so that one unit is a factor of ten.

Chain of recombinant human DPPI (Cathepsin C) (P53634 231-394): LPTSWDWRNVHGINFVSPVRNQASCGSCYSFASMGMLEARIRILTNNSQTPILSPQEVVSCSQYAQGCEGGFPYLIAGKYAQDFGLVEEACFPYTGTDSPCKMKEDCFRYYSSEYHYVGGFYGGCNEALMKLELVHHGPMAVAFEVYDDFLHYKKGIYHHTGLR
Chain of recombinant human DPPI (Cathepsin C) (P53634 395-463): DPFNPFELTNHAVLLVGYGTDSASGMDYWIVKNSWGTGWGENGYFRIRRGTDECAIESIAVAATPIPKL
Chain of recombinant human DPPI (Cathepsin C) (P53634 25-134): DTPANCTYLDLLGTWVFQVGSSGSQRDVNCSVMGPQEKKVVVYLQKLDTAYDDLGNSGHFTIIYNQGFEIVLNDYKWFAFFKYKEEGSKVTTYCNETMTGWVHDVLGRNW
Chain of recombinant human Cathepsin K (P43235 115-329): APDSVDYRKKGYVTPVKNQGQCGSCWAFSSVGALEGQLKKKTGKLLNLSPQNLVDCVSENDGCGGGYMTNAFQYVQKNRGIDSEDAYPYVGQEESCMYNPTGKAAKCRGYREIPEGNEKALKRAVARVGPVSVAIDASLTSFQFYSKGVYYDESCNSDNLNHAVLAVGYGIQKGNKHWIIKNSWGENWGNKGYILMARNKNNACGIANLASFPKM

Regarding `N#C[C@H](Cc1ccc(N2CCCN3CCCC3C2)cc1F)NC(=O)[C@H]1N[C@@H]2CC[C@H]1C2` (stereo partly drawn) [Example 271], in series [1], the “In vitro stability in human liver microsome incubations t½” value (“In vitro stability” below) is 2.17 h.
Regarding `N#CC(Cc1ccc(-c2cnn(-c3ccccc3)c2)cc1F)NC(=O)[C@H]1N[C@@H]2CC[C@H]1C2` (stereo partly drawn) [Example 78], in series [1], the “In vitro stability” value stood at 2.17 h.
For the compound `CS(=O)(=O)c1ccc(-c2ccc(C[C@@H](C#N)NC(=O)[C@H]3N[C@@H]4CC[C@H]3C4)c(F)c2)cc1OCC(F)F` [Example 252], in series [1], the “In vitro stability” value turned out to be 2.17 h.
For the compound `CN1C(=O)Cc2ccc(-c3ccc(CC(C#N)NC(=O)[C@H]4N[C@@H]5CC[C@H]4C5)c(F)c3)cc21` (stereo partly drawn) [Example 15], the “In vitro stability” value in series [1] was found to be 2.17 h.
With `CC(C)c1cc(-c2ccc(C[C@@H](C#N)NC(=O)[C@H]3N[C@@H]4CC[C@H]3C4)c(F)c2)ccc1[S+](C)[O-]` (stereo partly drawn) [Example 251], the pIC50 in series [2] is 7.94.
Regarding `N#C[C@H](Cc1ccc(N2CCN(CC3CCOC3)CC2)cc1F)NC(=O)[C@H]1N[C@@H]2CC[C@H]1C2` (stereo partly drawn) [Example 154], the negative-log IC50 (pIC50) in series [3] is 5.34; in series [4] (setting [5]), 8.34; in series [2], 7.87. In addition, in series [1], the half-life at 1 μM is above 2.17 h.
On to `N#C[C@H](Cc1ccc(-c2ccc(S(=O)(=O)N3CCOCC3)cc2)cc1F)NC(=O)[C@H]1N[C@@H]2CC[C@H]1C2` [Example 217], for which the negative logarithm of the IC50 (pIC50) in series [4] (read-out: Reduction of NE-activity in U937 cells IC50) was 8.12.
For the compound `CS(=O)(=O)c1cc(OCC(F)(F)F)cc(-c2ccc(C[C@@H](C#N)NC(=O)[C@H]3N[C@@H]4CC[C@H]3C4)c(F)c2)c1` [Example 276], the “In vitro stability” value in series [1] worked out at 2.17 h.
Turning to `N#C[C@H](Cc1ccc(N2CC3CCN(C4CCOC4)C3C2)cc1F)NC(=O)[C@H]1N[C@@H]2CC[C@H]1C2` (stereo partly drawn) [Example 348], the “In vitro stability” value in series [1] stood at 2.17 h.
For `CN1CCC(N2C(=O)Cc3ccc(-c4ccc(C[C@@H](C#N)NC(=O)[C@H]5N[C@@H]6CC[C@H]5C6)c(F)c4)cc32)CC1` [Example 346], the “In vitro stability” value in series [1] is above 2.17 h.
Consider `CN1CCCN(S(=O)(=O)c2ccc(-c3ccc(C[C@@H](C#N)NC(=O)[C@H]4N[C@@H]5CC[C@H]4C5)c(F)c3)cc2)CC1` [Example 340], for which the negative-log IC50 (pIC50) in series [4] (setting [5]) was 9.10.
On to `CN1C(=O)Cc2ccc(-c3cc(F)c(C[C@@H](C#N)NC(=O)[C@H]4N[C@@H]5CC[C@H]4C5)cc3F)cc21` [Example 31], for which, in series [1], the half-life at 1 μM was 1.5 h.
